From publication PMC5218480 (PLoS ONE, 2017)

Tested on: MV-4-11 cells
Test: Gene expression microarray analysis (Affymetrix PrimeView) and GSEA
Format: cell-based, human
Parameters: RFU PODN (11730768_x_at) / Fold change /veh PODN (11730768_x_at) / RFU LINC00158 (11744669_a_at) / Fold change /veh LINC00158 (11744669_a_at) / RFU DUSP10 (11751237_a_at) / Fold change /veh DUSP10 (11751237_a_at) / RFU ID3 (11757404_x_at) / Fold change /veh ID3 (11757404_x_at) / RFU PLEKHG5 (11737974_s_at) / Fold change /veh PLEKHG5 (11737974_s_at) / RFU LRRC4B (11730491_at) / Fold change /veh LRRC4B (11730491_at) / RFU GIMAP4 (11747438_a_at) / Fold change /veh GIMAP4 (11747438_a_at) / RFU KRT8 (11758183_x_at) / Fold change /veh KRT8 (11758183_x_at) / RFU CNN1 (11734310_a_at) / Fold change /veh CNN1 (11734310_a_at) / RFU VPS37D (11726825_at) / Fold change /veh VPS37D (11726825_at) / RFU C10orf10 (11716522_x_at) / Fold change /veh C10orf10 (11716522_x_at) / RFU KIR2DL2 /// KIR2DL4 /// KIR2DL5A /// KIR2DL5B /// KIR2DS1 /// KIR2DS2 /// KIR2DS3 /// KIR2DS4 /// KIR3DL3 /// KIR3DL3 /// KIR3DS1 (11738374_at) / Fold change /veh KIR2DL2 /// KIR2DL4 /// KIR2DL5A /// KIR2DL5B /// KIR2DS1 /// KIR2DS2 /// KIR2DS3 /// KIR2DS4 /// KIR3DL3 /// KIR3DL3 /// KIR3DS1 (11738374_at) / RFU C1QL1 (11718748_at) / Fold change /veh C1QL1 (11718748_at) / RFU TMPRSS4 (11747572_a_at) / Fold change /veh TMPRSS4 (11747572_a_at) / RFU HAMP (11756126_x_at) / Fold change /veh HAMP (11756126_x_at) / RFU RNFT2 (11725882_a_at) / Fold change /veh RNFT2 (11725882_a_at) / RFU NR4A2 (11747474_a_at) / Fold change /veh NR4A2 (11747474_a_at) / RFU ABCC12 (11746883_a_at) / Fold change /veh ABCC12 (11746883_a_at) / RFU TMEM136 (11760407_x_at) / Fold change /veh TMEM136 (11760407_x_at) / RFU CLDN22 /// WWC2 (11732394_at) / Fold change /veh CLDN22 /// WWC2 (11732394_at) / RFU HLA-DPB1 (11760878_x_at) / Fold change /veh HLA-DPB1 (11760878_x_at) / RFU SPINT1 (11716480_a_at) / Fold change /veh SPINT1 (11716480_a_at) / RFU GAP43 (11754022_s_at) / Fold change /veh GAP43 (11754022_s_at) / RFU A4GNT (11735810_at) / Fold change /veh A4GNT (11735810_at) / RFU PRB3 (11715151_x_at) / Fold change /veh PRB3 (11715151_x_at) / RFU TUBB4B (11761932_at) / Fold change /veh TUBB4B (11761932_at) / RFU CAPN14 (11732068_a_at) / Fold change /veh CAPN14 (11732068_a_at) / RFU TMCC2 (11721928_a_at) / Fold change /veh TMCC2 (11721928_a_at) / RFU IRGQ (11745062_a_at) / Fold change /veh IRGQ (11745062_a_at) / RFU FAM174B (11720279_a_at) / Fold change /veh FAM174B (11720279_a_at) / RFU TMPRSS4 (11748680_a_at) / Fold change /veh TMPRSS4 (11748680_a_at) / RFU FAM212B (11763350_a_at) / Fold change /veh FAM212B (11763350_a_at) / RFU PLEKHG5 (11743358_a_at) / Fold change /veh PLEKHG5 (11743358_a_at) / RFU ZSCAN30 (11745921_a_at) / Fold change /veh ZSCAN30 (11745921_a_at) / RFU CMKLR1 (11741424_a_at) / Fold change /veh CMKLR1 (11741424_a_at) / RFU LOC101060620 /// MAPK8IP1 (11723275_at) / Fold change /veh LOC101060620 /// MAPK8IP1 (11723275_at) / RFU SPTSSB (11747773_x_at) / Fold change /veh SPTSSB (11747773_x_at) / RFU PRSS12 (11739890_at) / Fold change /veh PRSS12 (11739890_at) / RFU BIN1 (11741810_x_at) / Fold change /veh BIN1 (11741810_x_at) / RFU WNT11 (11732464_a_at) / Fold change /veh WNT11 (11732464_a_at) / RFU C10orf10 (11716521_a_at) / Fold change /veh C10orf10 (11716521_a_at) / RFU C5orf56 (11738089_at) / Fold change /veh C5orf56 (11738089_at) / RFU CYB561 (11721691_x_at) / Fold change /veh CYB561 (11721691_x_at) / RFU ANKRD19P (11752326_a_at) / Fold change /veh ANKRD19P (11752326_a_at) / RFU OR2T12 /// OR2T33 /// OR2T8 (11738714_s_at) / Fold change /veh OR2T12 /// OR2T33 /// OR2T8 (11738714_s_at) / RFU VCAN (11748164_a_at) / Fold change /veh VCAN (11748164_a_at) / RFU JSRP1 (11732532_at) / Fold change /veh JSRP1 (11732532_at) / RFU KRTAP10-11 (11738290_x_at) / Fold change /veh KRTAP10-11 (11738290_x_at) / RFU MYO3A (11730013_a_at) / Fold change /veh MYO3A (11730013_a_at) / RFU EBF3 (11725865_a_at) / Fold change /veh EBF3 (11725865_a_at) / RFU CAMK2N1 (11719241_x_at) / Fold change /veh CAMK2N1 (11719241_x_at) / RFU C5orf56 (11738088_a_at) / Fold change /veh C5orf56 (11738088_a_at) / RFU OLFML3 (11715873_a_at) / Fold change /veh OLFML3 (11715873_a_at) / RFU LOC100653217 /// NTM (11731650_a_at) / Fold change /veh LOC100653217 /// NTM (11731650_a_at) / RFU MAPK11 (11762145_a_at) / Fold change /veh MAPK11 (11762145_a_at) / RFU FIZ1 (11724087_x_at) / Fold change /veh FIZ1 (11724087_x_at) / RFU OASL (11726364_x_at) / Fold change /veh OASL (11726364_x_at) / RFU SOX15 (11748057_x_at) / Fold change /veh SOX15 (11748057_x_at) / RFU CD79A (11719716_a_at) / Fold change /veh CD79A (11719716_a_at) / RFU HIST1H1D (11736915_at) / Fold change /veh HIST1H1D (11736915_at) / RFU CASKIN2 (11723855_a_at) / Fold change /veh CASKIN2 (11723855_a_at) / RFU LOC730098 (11760151_x_at) / Fold change /veh LOC730098 (11760151_x_at) / RFU OR4N2 (11742367_at) / Fold change /veh OR4N2 (11742367_at) / RFU PRRT2 (11749266_a_at) / Fold change /veh PRRT2 (11749266_a_at) / RFU SNX32 (11753110_a_at) / Fold change /veh SNX32 (11753110_a_at) / RFU CDHR5 (11726645_a_at) / Fold change /veh CDHR5 (11726645_a_at) / RFU RCAN1 (11760418_a_at) / Fold change /veh RCAN1 (11760418_a_at) / RFU FAM167A (11723789_a_at) / Fold change /veh FAM167A (11723789_a_at) / RFU FAM26E (11764081_at) / Fold change /veh FAM26E (11764081_at) / RFU ISYNA1 (11749810_s_at) / Fold change /veh ISYNA1 (11749810_s_at) / RFU ACY1 (11761880_at) / Fold change /veh ACY1 (11761880_at) / RFU 11764098_at / Fold change /veh 11764098_at / RFU SAMD14 (11745864_x_at) / Fold change /veh SAMD14 (11745864_x_at) / RFU NPB (11741838_a_at) / Fold change /veh NPB (11741838_a_at) / RFU TMPRSS6 (11731388_a_at) / Fold change /veh TMPRSS6 (11731388_a_at) / RFU KRTAP10-2 (11738614_at) / Fold change /veh KRTAP10-2 (11738614_at) / RFU ARHGAP8 /// PRR5-ARHGAP8 (11727945_x_at) / Fold change /veh ARHGAP8 /// PRR5-ARHGAP8 (11727945_x_at) / RFU KRTAP5-7 /// NADSYN1 (11734609_at) / Fold change /veh KRTAP5-7 /// NADSYN1 (11734609_at) / RFU RASL12 (11751679_a_at) / Fold change /veh RASL12 (11751679_a_at) / RFU CDKN2B (11736163_a_at) / Fold change /veh CDKN2B (11736163_a_at) / RFU PRF1 (11729649_at) / Fold change /veh PRF1 (11729649_at) / RFU, ZNF638 /// ZNF638-IT1 / Fold change vs veh, ZNF638 /// ZNF638-IT1 / RFU, PANK3 / Fold change vs veh, PANK3 / RFU, SH3YL1 / Fold change vs veh, SH3YL1 / RFU, ZEB2 / Fold change vs veh, ZEB2 / RFU, NRIP1 / Fold change vs veh, NRIP1 / RFU, PTTG1IP / Fold change vs veh, PTTG1IP / RFU, CAPN2 / Fold change vs veh, CAPN2 / RFU, MED14 / Fold change vs veh, MED14 / RFU, SNORA58 / Fold change vs veh, SNORA58 / RFU, C1orf63 / Fold change vs veh, C1orf63 / RFU, LRRFIP1 / Fold change vs veh, LRRFIP1 / RFU, NDUFAF7 / Fold change vs veh, NDUFAF7 / RFU, SLC12A2 / Fold change vs veh, SLC12A2 / RFU, IBTK / Fold change vs veh, IBTK / RFU, ESF1 / Fold change vs veh, ESF1 / Fold change vs veh, TMEM50B / RFU, TAOK1 / Fold change vs veh, TAOK1 / RFU, ACBD3 / Fold change vs veh, ACBD3 / RFU, TMA16 / Fold change vs veh, TMA16 / RFU, RWDD3 / Fold change vs veh, RWDD3 / RFU, BCAT1 / Fold change vs veh, BCAT1 / RFU, EDEM3 / Fold change vs veh, EDEM3 / RFU, TMEM33 / Fold change vs veh, TMEM33 / RFU, WDR75 / Fold change vs veh, WDR75 / RFU, AHCTF1 / Fold change vs veh, AHCTF1 / RFU, TFRC / Fold change vs veh, TFRC / RFU, ZDHHC17 / Fold change vs veh, ZDHHC17 / RFU, NOM1 / Fold change vs veh, NOM1 / RFU, ARL8B / Fold change vs veh, ARL8B / RFU, ZBTB11 / Fold change vs veh, ZBTB11 / RFU, TAMM41 / Fold change vs veh, TAMM41 / RFU, KIAA1704 /// LOC100996395 / Fold change vs veh, KIAA1704 /// LOC100996395 / RFU, ING1 / Fold change vs veh, ING1 / RFU, TRMT61B / Fold change vs veh, TRMT61B / RFU, FUBP3 / Fold change vs veh, FUBP3 / RFU, TP53 / Fold change vs veh, TP53 / RFU, TNKS2 / Fold change vs veh, TNKS2 / RFU, ZFP14 / Fold change vs veh, ZFP14 / RFU, ACTR2 / Fold change vs veh, ACTR2 / RFU, PPP3R1 / Fold change vs veh, PPP3R1 / RFU, PIK3R1 / Fold change vs veh, PIK3R1 / RFU, HNRNPA1 / Fold change vs veh, HNRNPA1 / RFU, RNF170 / Fold change vs veh, RNF170 / RFU, ZNF28 / Fold change vs veh, ZNF28 / RFU, RNGTT / Fold change vs veh, RNGTT / RFU, OGT / Fold change vs veh, OGT / RFU, BRD1 / Fold change vs veh, BRD1 / RFU, MARS / Fold change vs veh, MARS / RFU, ZNF655 / Fold change vs veh, ZNF655 / RFU, FAHD1 / Fold change vs veh, FAHD1 / RFU, BDP1 / Fold change vs veh, BDP1 / RFU, LRRCC1 / Fold change vs veh, LRRCC1 / RFU, ARID1A / Fold change vs veh, ARID1A / RFU, ZNF146 / Fold change vs veh, ZNF146 / RFU, ZNF330 / Fold change vs veh, ZNF330 / RFU, GPN3 / Fold change vs veh, GPN3 / RFU, C9orf123 / Fold change vs veh, C9orf123 / RFU, N4BP2L2 / Fold change vs veh, N4BP2L2 / RFU, ARFIP1 / Fold change vs veh, ARFIP1 / RFU, FAM179B / Fold change vs veh, FAM179B / RFU, BCL10 / Fold change vs veh, BCL10 / RFU, UHRF1BP1L / Fold change vs veh, UHRF1BP1L / RFU, BET1 / Fold change vs veh, BET1 / RFU, CNOT2 / Fold change vs veh, CNOT2 / RFU, ZNF268 / Fold change vs veh, ZNF268 / Fold change vs veh, ZNF507 / RFU, DGCR2 / Fold change vs veh, DGCR2 / RFU, WDSUB1 / Fold change vs veh, WDSUB1 / Fold change vs veh, HSP90B1 /// MIR3652 / RFU, ADSS / Fold change vs veh, ADSS / RFU, GK / Fold change vs veh, GK / RFU, ZNF148 / Fold change vs veh, ZNF148 / RFU, TAF9 / Fold change vs veh, TAF9 / RFU, SLC1A5 / Fold change vs veh, SLC1A5 / RFU, SLMO2 / Fold change vs veh, SLMO2 / RFU, ABCC4 / Fold change vs veh, ABCC4 / RFU, LOC101060439 /// RAP1B / Fold change vs veh, LOC101060439 /// RAP1B / RFU, RFX7 / Fold change vs veh, RFX7 / RFU, GTPBP10 / Fold change vs veh, GTPBP10 / RFU, CNEP1R1 / Fold change vs veh, CNEP1R1 / RFU, BIVM-ERCC5 /// ERCC5 / Fold change vs veh, BIVM-ERCC5 /// ERCC5 / RFU, ILF3 / Fold change vs veh, ILF3 / RFU 11762660_at / Fold change /veh 11762660_at / RFU VCAN (11757783_s_at) / Fold change /veh VCAN (11757783_s_at) / RFU DDX43 (11728927_at) / Fold change /veh DDX43 (11728927_at) / RFU KRT8 (11758188_x_at) / Fold change /veh KRT8 (11758188_x_at) / RFU NKD1 (11759106_at) / Fold change /veh NKD1 (11759106_at) / RFU SRD5A1 (11742802_a_at) / Fold change /veh SRD5A1 (11742802_a_at) / RFU TPSAB1 /// TPSB2 (11721975_s_at) / Fold change /veh TPSAB1 /// TPSB2 (11721975_s_at) / RFU GSTM3 (11746129_a_at) / Fold change /veh GSTM3 (11746129_a_at) / RFU IL23R (11737362_x_at) / Fold change /veh IL23R (11737362_x_at) / RFU TMEM51 (11727254_a_at) / Fold change /veh TMEM51 (11727254_a_at) / RFU PIWIL2 (11732686_x_at) / Fold change /veh PIWIL2 (11732686_x_at) / RFU ORM1 (11744905_x_at) / Fold change /veh ORM1 (11744905_x_at) / RFU CCDC152 (11743942_at) / Fold change /veh CCDC152 (11743942_at) / RFU ECM1 (11717891_a_at) / Fold change /veh ECM1 (11717891_a_at) / RFU IL23R (11748794_a_at) / Fold change /veh IL23R (11748794_a_at) / RFU TNFAIP8L3 (11732012_x_at) / Fold change /veh TNFAIP8L3 (11732012_x_at) / RFU MBOAT4 (11741988_at) / Fold change /veh MBOAT4 (11741988_at) / RFU 11764193_at / Fold change /veh 11764193_at / RFU TMEM53 (11763286_at) / Fold change /veh TMEM53 (11763286_at) / RFU MAGEB2 (11727129_at) / Fold change /veh MAGEB2 (11727129_at) / RFU TMEM200A (11744735_a_at) / Fold change /veh TMEM200A (11744735_a_at) / RFU CCDC152 (11751479_a_at) / Fold change /veh CCDC152 (11751479_a_at) / RFU FAM211A (11726209_a_at) / Fold change /veh FAM211A (11726209_a_at) / RFU RGS16 (11746705_a_at) / Fold change /veh RGS16 (11746705_a_at) / RFU VCAN (11755009_s_at) / Fold change /veh VCAN (11755009_s_at) / RFU RHOB (11743442_s_at) / Fold change /veh RHOB (11743442_s_at) / RFU RGS16 (11720943_a_at) / Fold change /veh RGS16 (11720943_a_at) / RFU RGS16 (11720944_at) / Fold change /veh RGS16 (11720944_at) / RFU, VPS4B / Fold change vs veh, VPS4B / RFU, CREB1 / Fold change vs veh, CREB1 / RFU, DNAJC13 / Fold change vs veh, DNAJC13 / RFU, GNAQ / Fold change vs veh, GNAQ / RFU, CDK5R1 / Fold change vs veh, CDK5R1 / RFU, ZRANB3 / Fold change vs veh, ZRANB3 / RFU, CUL4A / Fold change vs veh, CUL4A / RFU, CCNY / Fold change vs veh, CCNY / RFU, UFL1 / Fold change vs veh, UFL1 / RFU, COG3 / Fold change vs veh, COG3 / RFU, DIAPH2 / Fold change vs veh, DIAPH2 / RFU, SKA2 / Fold change vs veh, SKA2 / RFU, AFF3 / Fold change vs veh, AFF3 / RFU, LMF1 / Fold change vs veh, LMF1 / RFU, IPO11 / Fold change vs veh, IPO11 / RFU, DFFB / Fold change vs veh, DFFB / RFU, FOXP1 / Fold change vs veh, FOXP1 / RFU, CARD8 / Fold change vs veh, CARD8 / RFU, STRN3 / Fold change vs veh, STRN3 / RFU, ADK / Fold change vs veh, ADK / RFU, RASSF2 / Fold change vs veh, RASSF2 / RFU, WIPF1 / Fold change vs veh, WIPF1 / RFU, LARP1B / Fold change vs veh, LARP1B / RFU, RASA1 / Fold change vs veh, RASA1 / RFU, RB1 / Fold change vs veh, RB1 / RFU, PPFIA1 / Fold change vs veh, PPFIA1 / RFU, MAT2A / Fold change vs veh, MAT2A / RFU, CCT5 / Fold change vs veh, CCT5 / RFU, WDR92 / Fold change vs veh, WDR92 / RFU, CUX1 / Fold change vs veh, CUX1 / RFU, TTC7A / Fold change vs veh, TTC7A / RFU, TMEM135 / Fold change vs veh, TMEM135 / RFU, DEPTOR / Fold change vs veh, DEPTOR / RFU, CPM / Fold change vs veh, CPM / RFU, DNAJB6 / Fold change vs veh, DNAJB6 / RFU, CACNA2D3 / Fold change vs veh, CACNA2D3 / RFU, DTX4 / Fold change vs veh, DTX4 / RFU, TFCP2 / Fold change vs veh, TFCP2 / RFU, GMCL1 /// GMCL1P1 / Fold change vs veh, GMCL1 /// GMCL1P1 / RFU, AEBP2 / Fold change vs veh, AEBP2 / RFU, SNHG1 /// SNORD22 /// SNORD25 /// SNORD26 /// SNORD27 /// SNORD28 /// SNORD29 /// SNORD31 / Fold change vs veh, SNHG1 /// SNORD22 /// SNORD25 /// SNORD26 /// SNORD27 /// SNORD28 /// SNORD29 /// SNORD31 / Fold change (Aza/veh), C12orf56 (ProbeSet 11735607_a_at) / Fold change (ACY-1035/veh), C12orf56 (ProbeSet 11735607_a_at) / Fold change (Aza/veh), FGFR1OP (ProbeSet 11751329_s_at) / Fold change (ACY-1035/veh), FGFR1OP (ProbeSet 11751329_s_at) / Fold change (Aza/veh), VPS36 (ProbeSet 11739960_a_at) / Fold change (ACY-1035/veh), VPS36 (ProbeSet 11739960_a_at) / RFU SYPL1 (11715823_x_at) / Fold change /veh SYPL1 (11715823_x_at) / RFU IGFBP7 (11715501_s_at) / Fold change /veh IGFBP7 (11715501_s_at) / RFU REEP3 (11722064_at) / Fold change /veh REEP3 (11722064_at) / RFU IGLL1 (11728026_x_at) / Fold change /veh IGLL1 (11728026_x_at): dose or concentration left out as unconfirmed
Conditions: ProbeSet 11720154_at; LIST B

Compound: Nc1ccc(-c2cccs2)cc1NC(=O)c1ccc2c(c1)cc(C1CC1)n2CCN1CCOCC1 [ACY-1035]
- Fold change vs veh, NRIP1: 0.88
